Data taken from patent US9364479B2, “Use of a receptor-type kinase modulator for treating polycystic kidney disease” (SYMPHONY EVOLUTION, INC., priority 2010, dated 2016).
“And” between values parts separate entries of the source, which are not always exact repeats. Equal entries are not always repeated.

How the values were obtained:
CYP3A4 = CYP3A4 (Homo sapiens, UniProt P08684); conditions: microsomes
Testosterone (cytosolic) = target: T1, Testosterone (cytosolic) (Homo sapiens, UniProt P10275); assay: NovaScreen assay; format: binding; conditions: read-out: Inhibition, 10 μM XL-647
T1 construct: NovaScreen

EphA2 = EphA2 (Homo sapiens, UniProt P29317); assay: EphA2 autophosphorylation ELISA, PC-3 cells; format: cell-based; conditions: read-out: Cellular IC50, autophosphorylation
Procedure: The EphA2 autophosphorylation ELISA utilized PC-3 (ATCC) cells. Cells were seeded at 2.5×10^4 cells/well onto 96-well microtiter plates (Costar 3904), in DMEM (Cellgro) containing 10% FBS (Heat-Inactivated, Hyclone), 1% penicillin-streptomycin (Cellgro), and 1% NEAA solution (Cellgro). The cells were then incubated at 37° C., 5% CO2 for 16 h. Growth media was replaced with serum-free DMEM and cells were incubated for an additional 24 hr. […] Negative control wells were not treated with growth factor. After treatment, media was removed, the cell monolayer washed with cold PBS and immediately lysed with cold lysis buffer. Lysates were centrifuged and incubated into 96-well streptavidin-coated plates (Pierce) coated with biotin-conjugated, mouse anti-phosphotyrosine, PY20 (2 μg/ml, Calbiochem). Plates were incubated with rabbit polyclonal anti-EphA2, C-20 (1:500, Santa Cruz Biotechnology, Inc), followed by secondary antibody (HRP-conjugated, goat anti-rabbit IgG, 1:1000 from Cell Signaling) and the addition of a luminol-based substrate solution. Plates were read with a Victor spectrophotometer (Wallac).

Endothelin, ET-B (Human) = target: T2, Endothelin, ET-B (Human) (Homo sapiens, UniProt P24530); assay: NovaScreen assay; format: binding; conditions: read-out: Inhibition, 10 μM XL-647
T2 construct: NovaScreen

[1] = target: T3, Cholecystokinin, CCK1 (CCKA) (Homo sapiens, UniProt P32238); assay: NovaScreen assay; format: binding; conditions: read-out: Inhibition, 10 μM XL-647
T3 construct: NovaScreen

Flt1 = Flt1 (Homo sapiens, UniProt P17948); assay: Radiometric kinase assay; format: biochemical
Procedure: (§1) A radiometric ^33P-Phosphoryl transfer kinase assay was used to measure EphB4, insulin-like growth factor-I receptor (IGFR-1), and insulin receptor (IRK) activity. Reactions were performed in 384-well white, clear bottom, high-binding microtiter plates (Greiner). Plates were coated with 2 μg/well peptide substrate in a 50 μL volume. […] The coated plates were washed once with 50 μL assay buffer following overnight incubation at room temperature. Test compound and either 5 nmol/L EphB4 (residues E605-E890 of human EphB4 containing a six histidine NH2-terminal tag, expressed in a baculovirus expression system and purified using metal chelate chromatography), 4 nmol/L insulin-like growth factor-I receptor (residues M954-C1367 of human insulin-like growth factor-I receptor, Proqinase GmbH), or 15 nmol/L insulin receptor 1 (residues P948-S1343 of human insulin receptor 1, Proqinase) were combined with [^33P]g-ATP (5 μmol/L, 3.3 μCi/nmol) in a total volume of 20 μL. The reaction mixture was incubated at room temperature for 1.5 to 2.5 h and terminated by aspiration. The microtiter plates were subsequently washed six times with 0.05% Tween-PBS buffer. Scintillation fluid (50 μL/well) was added and incorporated ^33P was measured by liquid scintillation spectrometry using a MicroBeta scintillation counter (Perkin-Elmer). […]

Tie-2 = Tie-2 (Homo sapiens, UniProt Q02763); assay: Radiometric kinase assay; format: biochemical
Procedure: as §1

Histamine, H1 = target: T4, Histamine, H1 (Homo sapiens, UniProt P35367); assay: NovaScreen assay; format: binding; conditions: read-out: Inhibition, 10 μM XL-647
T4 construct: NovaScreen

[2] = test system: MDA-MB-231 xenograft tumors; assay: Immunohistochemistry of MDA-MB-231 xenograft tumors (Ki67, CD31); format: in vivo, mouse; conditions: 100 mg/kg, relative to vehicle
Procedure: For immunohistochemical analysis of H1975, MDA-MB-231 and other xenografts, tumors were excised after euthanasia and fixed in zinc fixative (BD Biosciences) for 48 h before being processed into paraffin blocks. Serial sections at 5 μm were obtained from the area of largest possible surface for each tumor and stained using standard methods. The following antibodies were used: Ki67 (SP6; Labvision), CD31 (MECA.32; BD Biosciences), pERK^Thr202/Tyr204 (phospho-p44/42 mitogen-activated protein kinase; Cell Signaling Technology), pAKT^Ser473 (Cell Signaling Technology), and pEGFR^Tyr1068 (Cell Signaling Technology). For immunofluorescent staining, sections were then incubated with Alexa 594-conjugated goat anti-rabbit secondary antibody (Invitrogen) and mounted in Fluorescent Mounting Medium (DAKO) containing 4′,6-diamidino-2-phenylindole (Molecular Probes) as a nuclear counterstain. Fluorescent staining was visualized using a Zeiss Axiolmager and digitally captured using a Zeiss high-resolution camera coupled to AxioVision image analysis software. Two to three nonoverlapping representative fields were captured at ×200 or ×400 magnification depending on histologic readout and quantified using the integrated morphometric analysis functions in Metamorph software (Universal Imaging Corp.). Apoptotic cells were detected using terminal deoxynucleotidyl transferase-mediated dUTP nick end labeling in situ cell death detection kit according to the manufacturer's instructions (Roche Diagnostics GmbH).
CD31-positive tumor vessels, Ki67-positive proliferating cells, and pERK staining in each tumor section were identified and quantified using the integrated morphometric analysis functions in the ACIS automatic cellular imaging system (Clarient, Inc.) and reviewed by a blinded observer. Number of CD31-positive vessels were identified across 5 to 10 randomly chosen fields of equal size at ×100 magnification in viable tumor tissue and calculated as number of vessels per square millimeter for each tumor, averaged for each treatment group, and compared with vehicle-treated controls. Percentage Ki67-positive cells were calculated as the ratio between Ki67-positive cells divided by the total number of cells identified across 5 to 10 randomly chosen fields of equal size in viable tumor tissue. The results for each tumor and treatment group were averaged and compared with vehicle-treated controls. The level of pERK staining was determined as described above and calculated as the ratio of antibody staining divided by the total number of cells identified, averaged for each treatment group, and compared with vehicle-treated controls.
Tumor proliferation was measured by staining for Ki67, which […]. The degree of tumor vascularization was measured by staining with the endothelial cell marker CD31 (Table 20).

[3] = mouse, in vivo, 100 mg/kg/day
Procedure: Throughout the dosing period, tumor size was measured twice weekly (where applicable), and body weight was measured daily. […] Tumors were excised at the termination of some studies and examined histologically for microvascular density (CD31 staining), proliferating cells (Ki67 staining), and necrosis (hematoxylin/eosin staining).
Tolerability was monitored in these studies by daily measurement of body weight.

Neurokinin, NK3 (NKB) = target: T5, Neurokinin, NK3 (NKB) (Homo sapiens, UniProt P29371); assay: NovaScreen assay; format: binding; conditions: read-out: Inhibition, 10 μM XL-647
T5 construct: NovaScreen

Chk2 = target: T6, Chk2 (Homo sapiens, UniProt O96017); assay: Radiometric kinase assay; format: biochemical
T6 construct: Human, 5-543, N-; GST (N); His (C); purchased Upstate Biotechnology
Procedure: (§2) Further screening was performed using the biochemical assay methods of Example 2. Additional description of the components and concentrations are summarized in Table 8, Table 9, and Table 10, below.

Chk1 = target: T7, Chk1 (Homo sapiens, UniProt O14757); assay: Radiometric kinase assay; format: biochemical
T7 construct: GST (N); purchased Upstate Biotechnology
Procedure: as §2

Plk1 = target: T8, Plk1 (Homo sapiens, UniProt P53350); assay: Radiometric kinase assay; format: biochemical
T8 construct: His6
Procedure: as §2

PKC-ε = target: T9, PKC-ε (Homo sapiens, UniProt Q02156); assay: Radiometric kinase assay; format: biochemical
T9 construct: purchased PanVera
Procedure: as §2

Calcium Channel, Type N = target: T10, Calcium Channel, Type N (Homo sapiens, UniProt Q00975); assay: NovaScreen assay; format: binding; conditions: read-out: Inhibition, 10 μM XL-647
T10 construct: NovaScreen

p-Y-HER2/ErbB2 = target: T11, p-Y-HER2/ErbB2 (Homo sapiens, UniProt P04626); assay: In vivo receptor phosphorylation, BT474 xenografts; design: species or system mouse; conditions: Phospho
T11 construct: endogenous in cells; host or cells: BT474 tumour xenografts in mice (per the earlier reading)
T11 sequence (P04626 23-1255): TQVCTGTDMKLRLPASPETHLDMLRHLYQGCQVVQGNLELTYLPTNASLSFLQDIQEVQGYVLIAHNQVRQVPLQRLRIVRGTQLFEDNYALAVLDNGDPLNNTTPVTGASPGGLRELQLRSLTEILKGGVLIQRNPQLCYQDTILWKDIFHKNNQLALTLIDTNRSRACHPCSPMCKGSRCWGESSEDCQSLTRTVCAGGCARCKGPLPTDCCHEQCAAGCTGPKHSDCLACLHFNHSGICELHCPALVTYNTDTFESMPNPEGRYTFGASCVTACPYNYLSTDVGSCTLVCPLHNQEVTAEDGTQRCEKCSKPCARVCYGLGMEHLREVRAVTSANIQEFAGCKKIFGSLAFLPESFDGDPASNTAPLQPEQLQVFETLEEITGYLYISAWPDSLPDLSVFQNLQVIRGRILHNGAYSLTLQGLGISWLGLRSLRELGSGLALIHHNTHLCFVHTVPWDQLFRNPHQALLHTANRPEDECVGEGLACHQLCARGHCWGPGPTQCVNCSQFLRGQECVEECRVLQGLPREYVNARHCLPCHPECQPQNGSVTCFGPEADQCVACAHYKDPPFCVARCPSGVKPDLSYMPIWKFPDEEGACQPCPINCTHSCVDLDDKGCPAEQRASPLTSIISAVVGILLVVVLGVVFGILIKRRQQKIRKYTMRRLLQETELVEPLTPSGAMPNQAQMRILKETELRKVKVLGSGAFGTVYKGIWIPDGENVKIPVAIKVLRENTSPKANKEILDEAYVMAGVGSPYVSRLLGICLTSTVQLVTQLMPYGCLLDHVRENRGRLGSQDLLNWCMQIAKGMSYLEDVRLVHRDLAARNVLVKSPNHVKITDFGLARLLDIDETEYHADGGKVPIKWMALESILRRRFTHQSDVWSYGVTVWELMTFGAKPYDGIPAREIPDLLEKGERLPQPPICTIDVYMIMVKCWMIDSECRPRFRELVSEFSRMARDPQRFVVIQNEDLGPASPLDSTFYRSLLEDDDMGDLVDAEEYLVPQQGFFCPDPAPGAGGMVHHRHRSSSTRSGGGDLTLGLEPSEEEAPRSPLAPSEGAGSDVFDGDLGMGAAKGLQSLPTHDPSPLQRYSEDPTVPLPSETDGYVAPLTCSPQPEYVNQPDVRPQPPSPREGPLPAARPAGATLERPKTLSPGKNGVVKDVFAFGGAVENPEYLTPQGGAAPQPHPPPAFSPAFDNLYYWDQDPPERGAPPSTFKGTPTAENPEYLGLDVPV

Tie-2, sequence (Q02763 23-1124): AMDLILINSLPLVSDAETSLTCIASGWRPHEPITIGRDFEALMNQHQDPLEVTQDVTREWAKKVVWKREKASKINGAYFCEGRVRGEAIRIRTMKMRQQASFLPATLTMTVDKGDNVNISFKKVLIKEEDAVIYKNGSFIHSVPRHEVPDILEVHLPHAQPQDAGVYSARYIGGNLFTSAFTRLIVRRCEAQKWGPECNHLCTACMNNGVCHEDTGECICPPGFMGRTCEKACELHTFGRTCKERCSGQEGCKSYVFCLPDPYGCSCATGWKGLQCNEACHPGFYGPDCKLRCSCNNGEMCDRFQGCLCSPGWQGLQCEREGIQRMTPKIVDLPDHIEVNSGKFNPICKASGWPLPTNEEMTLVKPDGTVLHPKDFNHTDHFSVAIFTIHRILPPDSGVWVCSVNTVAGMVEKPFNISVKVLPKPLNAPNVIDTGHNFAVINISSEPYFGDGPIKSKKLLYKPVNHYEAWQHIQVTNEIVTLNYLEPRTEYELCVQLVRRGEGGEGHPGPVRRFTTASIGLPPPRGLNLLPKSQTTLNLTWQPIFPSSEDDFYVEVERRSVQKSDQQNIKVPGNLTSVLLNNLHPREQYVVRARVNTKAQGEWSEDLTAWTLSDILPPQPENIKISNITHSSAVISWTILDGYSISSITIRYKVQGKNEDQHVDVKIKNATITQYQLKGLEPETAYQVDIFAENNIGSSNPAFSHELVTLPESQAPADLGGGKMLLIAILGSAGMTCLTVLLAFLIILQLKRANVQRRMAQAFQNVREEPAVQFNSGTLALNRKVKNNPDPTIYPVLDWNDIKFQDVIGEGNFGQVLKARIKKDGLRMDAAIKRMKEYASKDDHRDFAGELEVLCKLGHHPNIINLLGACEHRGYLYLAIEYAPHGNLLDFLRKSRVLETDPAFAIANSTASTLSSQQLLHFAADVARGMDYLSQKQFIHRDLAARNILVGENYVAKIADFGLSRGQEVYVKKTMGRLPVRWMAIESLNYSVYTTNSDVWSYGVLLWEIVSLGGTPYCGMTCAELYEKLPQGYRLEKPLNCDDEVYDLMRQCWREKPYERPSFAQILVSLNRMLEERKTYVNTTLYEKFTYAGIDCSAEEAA
T2 sequence (P24530 27-442): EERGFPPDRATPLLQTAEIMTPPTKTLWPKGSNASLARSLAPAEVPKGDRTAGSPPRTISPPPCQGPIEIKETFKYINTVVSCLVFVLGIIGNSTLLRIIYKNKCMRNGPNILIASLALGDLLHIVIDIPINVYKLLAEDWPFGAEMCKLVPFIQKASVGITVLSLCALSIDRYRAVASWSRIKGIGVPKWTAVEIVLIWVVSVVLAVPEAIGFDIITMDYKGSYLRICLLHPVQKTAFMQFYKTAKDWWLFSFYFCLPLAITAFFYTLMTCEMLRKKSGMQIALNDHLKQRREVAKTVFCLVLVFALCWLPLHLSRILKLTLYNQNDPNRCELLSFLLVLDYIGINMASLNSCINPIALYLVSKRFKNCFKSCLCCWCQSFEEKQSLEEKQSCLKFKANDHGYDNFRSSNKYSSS
T9 sequence (Q02156 whole entry): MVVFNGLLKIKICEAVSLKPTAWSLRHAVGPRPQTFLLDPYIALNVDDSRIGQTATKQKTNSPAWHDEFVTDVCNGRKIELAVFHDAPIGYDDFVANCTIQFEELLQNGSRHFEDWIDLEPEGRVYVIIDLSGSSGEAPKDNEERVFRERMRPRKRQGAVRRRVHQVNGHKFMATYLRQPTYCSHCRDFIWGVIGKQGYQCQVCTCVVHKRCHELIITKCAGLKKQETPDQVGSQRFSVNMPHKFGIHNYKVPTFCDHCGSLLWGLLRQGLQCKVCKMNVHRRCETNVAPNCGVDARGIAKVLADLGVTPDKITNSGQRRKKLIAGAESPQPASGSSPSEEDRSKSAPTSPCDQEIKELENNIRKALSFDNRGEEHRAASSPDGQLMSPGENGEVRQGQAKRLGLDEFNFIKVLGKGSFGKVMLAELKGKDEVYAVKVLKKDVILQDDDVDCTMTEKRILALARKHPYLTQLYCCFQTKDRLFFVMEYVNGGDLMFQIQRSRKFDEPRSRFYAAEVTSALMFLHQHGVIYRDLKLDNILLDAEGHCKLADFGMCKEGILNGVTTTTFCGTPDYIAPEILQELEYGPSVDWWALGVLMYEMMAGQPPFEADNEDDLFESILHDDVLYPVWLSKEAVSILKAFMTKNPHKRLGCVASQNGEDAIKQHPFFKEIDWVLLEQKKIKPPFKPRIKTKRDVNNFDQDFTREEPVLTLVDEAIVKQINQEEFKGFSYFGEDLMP
EphA2, sequence (P29317 24-976): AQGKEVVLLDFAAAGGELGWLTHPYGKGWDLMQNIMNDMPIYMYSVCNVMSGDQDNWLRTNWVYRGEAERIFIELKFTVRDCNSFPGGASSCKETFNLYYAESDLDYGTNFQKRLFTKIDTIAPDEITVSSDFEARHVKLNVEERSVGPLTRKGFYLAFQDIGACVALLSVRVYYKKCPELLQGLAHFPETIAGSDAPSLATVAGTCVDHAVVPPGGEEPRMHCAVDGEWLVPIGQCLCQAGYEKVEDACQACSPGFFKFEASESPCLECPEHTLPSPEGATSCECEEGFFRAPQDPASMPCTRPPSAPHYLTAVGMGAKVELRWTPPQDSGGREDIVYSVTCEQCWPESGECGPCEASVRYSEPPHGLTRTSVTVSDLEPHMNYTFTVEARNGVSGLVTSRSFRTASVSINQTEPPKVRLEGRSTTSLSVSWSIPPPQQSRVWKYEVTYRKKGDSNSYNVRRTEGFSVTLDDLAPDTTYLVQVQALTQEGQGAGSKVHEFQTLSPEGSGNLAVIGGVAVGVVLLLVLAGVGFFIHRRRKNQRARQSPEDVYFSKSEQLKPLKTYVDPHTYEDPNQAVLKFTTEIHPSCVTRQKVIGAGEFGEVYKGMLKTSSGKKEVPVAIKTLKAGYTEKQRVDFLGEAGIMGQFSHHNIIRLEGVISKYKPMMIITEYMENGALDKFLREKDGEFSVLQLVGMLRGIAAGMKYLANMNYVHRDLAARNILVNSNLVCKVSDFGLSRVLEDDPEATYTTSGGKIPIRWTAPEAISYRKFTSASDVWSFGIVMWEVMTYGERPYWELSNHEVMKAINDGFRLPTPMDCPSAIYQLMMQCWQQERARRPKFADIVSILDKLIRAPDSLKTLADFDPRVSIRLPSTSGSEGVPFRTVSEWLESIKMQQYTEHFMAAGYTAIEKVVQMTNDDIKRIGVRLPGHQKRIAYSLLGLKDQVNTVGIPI
T7 sequence (O14757 whole entry): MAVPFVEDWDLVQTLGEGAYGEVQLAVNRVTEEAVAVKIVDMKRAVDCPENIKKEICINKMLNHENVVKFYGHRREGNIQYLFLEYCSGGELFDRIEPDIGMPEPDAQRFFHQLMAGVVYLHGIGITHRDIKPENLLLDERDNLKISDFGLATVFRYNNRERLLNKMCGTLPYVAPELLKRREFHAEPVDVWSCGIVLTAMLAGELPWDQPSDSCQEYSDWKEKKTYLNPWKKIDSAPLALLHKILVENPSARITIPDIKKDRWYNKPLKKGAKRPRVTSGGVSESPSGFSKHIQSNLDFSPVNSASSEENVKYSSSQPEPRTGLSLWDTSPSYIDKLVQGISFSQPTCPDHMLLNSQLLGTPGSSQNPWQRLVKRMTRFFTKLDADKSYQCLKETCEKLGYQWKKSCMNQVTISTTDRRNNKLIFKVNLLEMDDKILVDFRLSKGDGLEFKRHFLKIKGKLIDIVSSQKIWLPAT

## COc1cc2c(Nc3ccc(Cl)c(Cl)c3F)ncnc2cc1OC[C@@H]1C[C@@H]2CN(C)C[C@@H]2C1 [XL-647, N-(3,4-dichloro-2-fluorophenyl)-7-({[(3aR,5r,6aS)-2-methyloctahydrocyclopenta[c]pyrrol-5-yl]methyl}oxy)-6-(methyloxy)quinazolin-4-amine]
CYP3A4
  CYP3A4 inhibition, in words: but not CYP3A4
Testosterone (cytosolic)
  inhibition at 10 µM: 18.1%
EphA2
  IC50: 1100 nM
Endothelin, ET-B (Human)
  inhibition at 10 µM: -13.6%
[1]
  inhibition at 10 µM: 47.5%
Flt1
  IC50: 56.5 ± 15.5 nM
Tie-2
  IC50: 54 ± 13.4 nM
Histamine, H1
  inhibition at 10 µM: 59.8%
[2]; 3 days
  CD31 (% Reduction): 76% and 76.5%
  Ki67 (% Reduction): 9.62%
[2]; 5 days
  CD31 (% Reduction): 90.18%
  Ki67 (% Reduction): 33.8%
[2]; 7 days
  CD31 (% Reduction): 95.7%
  Ki67 (% Reduction): 50% and 48.7%
[3]
  tolerability, in words: generally well-tolerated in mice without substantial body weight loss
Neurokinin, NK3 (NKB)
  inhibition at 10 µM: 20%
Chk2
  IC50: > 10000 nM
Chk1
  IC50: > 10000 nM
Plk1
  IC50: > 1000 nM
PKC-ε
  IC50: > 10000 nM
Calcium Channel, Type N
  inhibition at 10 µM: 16.8%
p-Y-HER2/ErbB2
  Single Dose Duration of Action (100 mg/kg, >50% inhibition): >72 h
p-Y-HER2/ErbB2; in vivo, read-out: Estimated IC50 (plasma concentration)
  IC50: 3600 nM
